Measurements from the supplement of paper PMC8920030.

Legend:
Settings in all cases: growth mode: biofilm, 24 h; exposure time: 24 h
tobramycin [1] = compound: T1, NC[C@H]1O[C@H](O[C@H]2[C@H](O)[C@@H](O[C@H]3O[C@H](CO)[C@@H](O)[C@H](N)[C@H]3O)[C@H](N)C[C@@H]2N)[C@H](N)C[C@@H]1O [tobramycin]; experiment: minimum concentration of killing, 2-log CFU reduction of biofilm (MCK99); higher = more biofilm tolerance
Description: (§1)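 Clinical P. aeruginosa isolates were grown as static biofilms for 24 h at 37 °C in LB in half-area 96-well plates, then exposed for 24 h to tobramycin at 1, 4, 16, 64, 256 or […]. Surviving CFU were counted by spotting serial dilutions. MCK is the lowest tested concentration giving the stated log reduction in CFU versus an untreated control; '>1024' means the reduction was not reached at the top dose, and 1 is the lowest dose tested (≤1).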

tobramycin [2] = compound: T1, tobramycin; experiment: minimum concentration eradicating biofilm below detection limit (MCK-E); higher = more biofilm tolerance
Description: as §1

colistin [3] = compound: T2, CCC(C)CCCC(=O)N[C@@H](CCN)C(=O)N[C@H](C(=O)N[C@@H](CCN)C(=O)N[C@H]1CCNC(=O)[C@H]([C@@H](C)O)NC(=O)[C@H](CCN)NC(=O)[C@H](CCN)NC(=O)[C@H](CC(C)C)NC(=O)[C@@H](CC(C)C)NC(=O)[C@H](CCN)NC1=O)[C@@H](C)O [colistin]; experiment: as above
Description: (§2)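 Clinical P. aeruginosa isolates were grown as static biofilms for 24 h at 37 °C in LB in half-area 96-well plates, then exposed for 24 h to colistin at 1, 4, 16, 64, 256 or […]. Surviving CFU were counted by spotting serial dilutions. MCK is the lowest tested concentration giving the stated log reduction in CFU versus an untreated control; '>1024' means the reduction was not reached at the top dose, and 1 is the lowest dose tested (≤1).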

tobramycin [4] = compound: T1, tobramycin; experiment: minimum concentration of killing, 1-log CFU reduction of biofilm (MCK90); higher = more biofilm tolerance
Description: as §1

colistin [5] = compound: T2, colistin; experiment: as above
Description: as §2

tobramycin [6] = compound: T1, tobramycin; experiment: minimum concentration of killing, 4-log CFU reduction of biofilm (MCK99.99); higher = more biofilm tolerance
Description: as §1

colistin [7] = compound: T2, colistin; experiment: as above
Description: as §2

colistin [8] = compound: T2, colistin; experiment: minimum concentration of killing, 2-log CFU reduction of biofilm (MCK99); higher = more biofilm tolerance
Description: as §2

Test System	minimum concentration of killing (tobramycin [1]) [µg/mL]	minimum concentration eradicating biofilm below detection limit (tobramycin [2]) [µg/mL]	minimum concentration eradicating biofilm below detection limit (colistin [3]) [µg/mL]	minimum concentration of killing (tobramycin [4]) [µg/mL]	minimum concentration of killing (colistin [5]) [µg/mL]	minimum concentration of killing (tobramycin [6]) [µg/mL]	minimum concentration of killing (colistin [7]) [µg/mL]	minimum concentration of killing (colistin [8]) [µg/mL]
Pseudomonas aeruginosa clinical isolate ESP027	4	1020	64	≤ 1	16	1020	64	64
Pseudomonas aeruginosa clinical isolate ESP028	256	1020	256	16	256	1020	256	256
Pseudomonas aeruginosa clinical isolate ESP029	4	256	256	4	256	256	256	256
Pseudomonas aeruginosa clinical isolate ESP031	1020	1020	256	1020	256	1020	256	256
Pseudomonas aeruginosa clinical isolate ESP032	256	> 1020	256	256	256	1020	256	256
Pseudomonas aeruginosa clinical isolate ESP033	64	256	256	16	256	64	256	256
Pseudomonas aeruginosa clinical isolate ESP034	16	1020	256	4	256	1020	256	256
Pseudomonas aeruginosa clinical isolate ESP035	256	1020	256	256	64	256	256	256
Pseudomonas aeruginosa clinical isolate ESP036	4	64	256	≤ 1	256	16	256	256
Pseudomonas aeruginosa clinical isolate ESP037	4	256	64	4	64	64	64	64
Pseudomonas aeruginosa clinical isolate ESP038	4	64	256	≤ 1	64	4	256	64
Pseudomonas aeruginosa clinical isolate ESP039	16	256	64	4	64	64	64	64
Pseudomonas aeruginosa clinical isolate ESP040	16	64	64	4	64	64	64	64
Pseudomonas aeruginosa clinical isolate ESP044	64	256	256	4	64	256	256	64
